From patent US20110045101A1, “FUNGICIDAL SUBSTITUTED AZOLES” (E.I. Du Pont De Nemours and Company, priority 2009, published 2011)
Marks after values point to notes of the source that are not given here.

Tests used:
Assay type in all cases: in vivo
Settings in all cases: 100 = 100% disease control
[1] = test system: Puccinia recondita f. sp. tritici; experiment: Test I: wheat leaf rust on wheat seedlings, sprayed the day before inoculation, visual disease rating
Method in brief: (§1)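 Ratings reflect a 200 ppm spray (≈500 g/ha) unless marked as 40 ppm. Plants were sprayed to run-off. The spray suspension was acetone/purified water 50/50 containing 250 ppm Trem 014, after first dissolving compound in acetone at 3% of final volume.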

[2] = test system: Puccinia recondita f. sp. tritici; experiment: Test H: wheat leaf rust, test suspension sprayed after inoculation of wheat seedlings, visual disease rating
Method in brief: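 Wheat seedlings inoculated with P. recondita spores, held 24 h saturated at 20 °C, then 2 days in growth chamber at 20 °C; compound suspension (acetone/water with Trem 014) sprayed to run-off afterwards. Rated visually; 200 ppm (≈500 g/ha) unless marked *, which denotes 40 ppm.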

[3] = test system: Septoria nodorum; experiment: Test F: wheat glume blotch on wheat seedlings, sprayed the day before inoculation, visual disease rating
Method in brief: as §1

[4] = test system: Alternaria solani; experiment: Test D: tomato early blight, sprayed the day before inoculation, visual disease rating
Method in brief: as §1

[5] = test system: Septoria tritici; experiment: Test G: wheat leaf blotch on wheat seedlings, sprayed the day before inoculation, visual disease rating
Method in brief: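 Disease was rated visually after Septoria tritici inoculation, 48 h saturated incubation at 24°C and 19 days in a 20°C growth chamber. Inoculation followed one day after run-off spraying of seedlings with compound at 200 ppm (≈500 g/ha) or, where marked, 40 ppm, formulated in acetone/water with surfactant.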

[6] = test system: Erysiphe graminis f. sp. tritici; experiment: Test J: wheat powdery mildew on wheat seedlings, sprayed the day before inoculation, visual disease rating
Method in brief: as §1

[7] = test system: Botrytis cinerea; experiment: Test C: tomato Botrytis on tomato seedlings, sprayed the day before inoculation, visual disease rating
Method in brief: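 Disease scored by eye on tomato seedlings inoculated with Botrytis cinerea a day after treatment. Treatment was a run-off spray at 200 ppm (equivalent to 500 g/ha), or 40 ppm where marked, in acetone/water carrying 250 ppm Trem 014.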

[8] = 200 ppm, 0 = no control relative to controls

Structure (SMILES)	Test I disease control rating [1, 8]	Test H disease control rating [2, 8]	Test F disease control rating [3, 8]	Test D disease control rating [4, 8]	Test G disease control rating [5, 8]	Test J disease control rating [6, 8]	Test C disease control rating [7, 8]	also measured
Cc1nc(Cl)c(-c2ccc(Cl)c(F)c2)n1-c1ccc(F)cc1Cl [compound 421]	100%	0%	0%	98%	100%	100%	100%	
COc1cc(OC)cc(-n2c(Br)nc(C)c2-c2c(F)cc(OC)cc2F)c1 [compound 657]								Test I disease control rating ([1]; 40 ppm (marked *)): 100* %; Test H disease control rating ([2]; 40 ppm (marked *)): 100* %; Test F disease control rating ([3]; 40 ppm (marked *)): 99* %; Test D disease control rating ([4]; 40 ppm (marked *)): 99* %; Test G disease control rating ([5]; 40 ppm (marked *)): 99* %; Test J disease control rating ([6]; 40 ppm (marked *)): 96* %; Test C disease control rating ([7]; 40 ppm (marked *)): 99* %
COc1cc(F)c(-c2c(Cl)nc(Cl)n2-c2ccc(OC)c(Cl)c2)c(F)c1 [compound 646]								Test I disease control rating ([1]; 40 ppm (marked *)): 92* %; Test H disease control rating ([2]; 40 ppm (marked *)): 0* %; Test F disease control rating ([3]; 40 ppm (marked *)): 0* %; Test D disease control rating ([4]; 40 ppm (marked *)): 47* %; Test G disease control rating ([5]; 40 ppm (marked *)): 97* %; Test J disease control rating ([6]; 40 ppm (marked *)): 35* %; Test C disease control rating ([7]; 40 ppm (marked *)): 93* %
COc1cc(F)c(-c2c(Cl)nc(Cl)n2-c2ccc(Cl)nc2)c(F)c1 [compound 406]	100%	100%	100%	100%	93%	100%	100%	
COc1cc(F)c(-c2c(Br)nc(Cl)n2-c2ccc(C(F)(F)F)nc2)c(F)c1 [compound 706]	86%	25%	0%	100%	99%	100%	57%	
COc1cc(F)c(-c2c(Cl)nc(Cl)n2-c2ccc(OC(F)F)cc2)c(F)c1 [compound 566]	100%	97%	100%	100%	97%	100%	100%	
Cc1ccc(-n2c(C)nc(Cl)c2-c2c(F)cc(O)cc2F)cc1 [Compound 624, 4-[4-chloro-2-methyl-1-(4-methylphenyl)-1H-imidazol-5-yl]-3,5-difluorophenol]								pest or weed control at 200 ppm ([1]; Puccinia recondita, 168 h, 200 ppm, 0 = no control relative to controls): 99%; pest or weed control at 200 ppm ([2]; Puccinia recondita, 96 h, 200 ppm, 0 = no control relative to controls): 0%; pest or weed control at 200 ppm ([3]; Parastagonospora nodorum, 264 h, 200 ppm, 0 = no control relative to controls): 0%; pest or weed control at 200 ppm ([4]; Alternaria solani, 168 h, 200 ppm, 0 = no control relative to controls): 64%; pest or weed control at 200 ppm ([5]; Zymoseptoria tritici, 504 h, 200 ppm, 0 = no control relative to controls): 94%; pest or weed control at 200 ppm ([6]; Blumeria graminis, 168 h, 200 ppm, 0 = no control relative to controls): 90%; pest or weed control at 200 ppm ([7]; Botrytis cinerea, 120 h, 200 ppm, 0 = no control relative to controls): 99%
COc1cc(F)c(-c2c(Cl)nc(Cl)n2-c2ccc(C)nc2)c(F)c1 [compound 553]	100%	100%	100%	100%	99%	100%	100%	
Fc1cc(F)c(-c2c(Cl)ncn2-c2cccc(OC(F)F)c2)c(F)c1 [compound 584]	100%	0%	0%	99%	98%	99%	99%	
CN(C)c1ccc(-n2c(Br)nc(N(C)C)c2-c2c(F)cccc2F)cc1Br [compound 689]	0%	0%	0%	0%	0%	0%	0%	
Fc1cc(-n2c(Cl)nc(CCl)c2-c2ccnc(Br)c2)ccc1Cl [compound 353]	41%	0%	0%	0%	8%	0%	0%	
COc1nc(Cl)ccc1-n1c(Cl)nc(Cl)c1-c1c(F)cccc1F [compound 619]	98%	51%	0%	53%	96%	99%	99%	
Fc1cc(F)c(-c2c(Cl)nc(Br)n2-c2cccc(OC(F)F)c2)c(F)c1 [compound 603]	100%	98%	99%	100%	99%	100%	99%	
COc1cc(F)c(-c2c(Cl)ncn2-c2cccc(Cl)c2)c(F)c1 [compound 497]	100%	0%	100%	99%	97%	100%	97%	
COc1cc(F)c(-c2c(Cl)nc(Br)n2-c2cccc(OC(F)(F)F)c2)c(F)c1 [compound 547]	99%	0%	60%	88%	97%	100%	99%	
COc1ccc(F)c(-c2c(Cl)nc(Br)n2-c2ccc(Cl)c(C)c2)c1F [compound 401]	73%	0%	0%	100%	96%	100%	99%	
Cc1nc(Cl)c(-c2c(F)cc(F)cc2F)n1-c1cccc(F)c1 [compound 370]	100%	100%	87%	100%	89%	100%	99%	
COc1ccc(F)c(-c2c(Cl)nc(Cl)n2Cc2ccc(Cl)cc2)c1F [compound 288]								Test I disease control rating ([1]; 200 ppm, 0 = no control): 96%; Test H disease control rating ([2]; 200 ppm, 0 = no control): 32%; Test F disease control rating ([3]; 200 ppm, 0 = no control): 73%; Test D disease control rating ([4]; 200 ppm, 0 = no control): 91%; Test G disease control rating ([5]; 200 ppm, 0 = no control): 94%; Test J disease control rating ([6]; 200 ppm, 0 = no control): 99%; Test C disease control rating ([7]; 200 ppm, 0 = no control): 100%
COc1cc(Cl)c(-c2c(Cl)nc(Cl)n2-c2ccc(Cl)c(F)c2)c(Cl)c1 [compound 437]	98%	0%	60%	80%	100%	98%	99%	
Fc1ccc(F)c(-c2c(Cl)nc(Cl)n2Cc2ccc(Cl)cc2)c1F [compound 285]								Test I disease control rating ([1]; 200 ppm, 0 = no control): 100%; Test H disease control rating ([2]; 200 ppm, 0 = no control): 98%; Test F disease control rating ([3]; 200 ppm, 0 = no control): 83%; Test D disease control rating ([4]; 200 ppm, 0 = no control): 85%; Test G disease control rating ([5]; 200 ppm, 0 = no control): 94%; Test J disease control rating ([6]; 200 ppm, 0 = no control): 100%; Test C disease control rating ([7]; 200 ppm, 0 = no control): 99%
